Data set [1] is described as follows: Solubility of TKDC (remark). It is filed as physicochemical.
The target in data set [2] is T1, TREK-2 (Homo sapiens, UniProt P57789).
T1 construct: expressed in transfected cells; host or cells: CHO cells, transient transfection
T1 sequence (P57789 1-538): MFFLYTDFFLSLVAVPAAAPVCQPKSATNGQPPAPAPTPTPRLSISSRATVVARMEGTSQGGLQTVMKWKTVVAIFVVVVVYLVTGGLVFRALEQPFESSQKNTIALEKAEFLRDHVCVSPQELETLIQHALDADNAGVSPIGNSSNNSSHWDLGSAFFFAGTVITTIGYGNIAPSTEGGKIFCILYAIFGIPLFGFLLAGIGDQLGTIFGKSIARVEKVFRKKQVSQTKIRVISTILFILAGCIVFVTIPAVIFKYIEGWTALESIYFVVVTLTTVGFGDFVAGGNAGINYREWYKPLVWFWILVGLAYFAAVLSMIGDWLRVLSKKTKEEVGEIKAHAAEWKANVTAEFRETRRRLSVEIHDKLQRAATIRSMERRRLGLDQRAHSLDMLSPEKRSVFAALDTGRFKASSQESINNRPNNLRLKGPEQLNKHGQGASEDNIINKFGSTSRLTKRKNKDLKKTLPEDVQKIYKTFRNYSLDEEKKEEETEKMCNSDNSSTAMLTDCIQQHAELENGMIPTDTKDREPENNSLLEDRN
Description: Whole-cell voltage clamp of CHO cells expressing TREK-2. The format is cell-based. The note with it: mean ± s.e.m. An excerpt:
(§1) cDNA of the human TREK-1, TREK-2 and TRAAK channels were subcloned into the pEGFPN1 expression vector (Invitrogen), respectively. Mutations were introduced into TREK-1 or TRAAK by PCR using the QuickChange XL sitedirected mutagenesis kit (Agilent Technologies) and were subsequently confirmed by DNA sequencing.
(§2) Chinese hamster ovary (CHO) cells were provided by the Cell Bank of Chinese Academy of Sciences (Shanghai, China). CHO cells were maintained in DMEM/F12 (Gibco) supplemented with 10% fetal bovine serum (Gibco) and 100 μg ml^−1 penicillin-streptomycin (Cellgro) in a humidified incubator at 37 °C (5% CO2). For electrophysiology experiments, cells plated in 35 mm tissue culture dishes (Corning Incorporated) were transiently transfected with the plasmids using PolyJet™ reagent (SignaGen) according to the manufacturer’s instructions. Primers used in this study are listed in Supplementary Table 4.
(§3) All electrophysiological recordings were obtained using patch-clamp recordings in two different configurations: (1) whole cell for macroscopic current dose–response curves; and (2) outside-out and inside-out for macroscopic currents recordings.
All patch-clamp recordings were conducted 36–96 h after transfection with an Axopatch-200B amplifier (Molecular Devices) at room temperature (23–25 °C). The microelectrodes fashioned from 1.5 mm thin-walled borosilicate glass with filament were pulled from Flaming/Brown type micropipette puller (P-97; SUTTER INSTRUMENT) with the resistances of 3–7 MΩ (whole cell) or 7–15 MΩ (outside-out) when filled with a solution containing (in mM): 140 KCl, 2 MgCl2, 10 EGTA, 1 CaCl2, 10 HEPES (pH 7.3, adjusted with KOH). External solution contained (in mM): 150 NaCl, 5 KCl, 0.5 CaCl2, 1.2 MgCl2, 10 HEPES (pH 7.3, adjusted with NaOH). The current signals were filtered at 1 kHz and digitized at a 10 kHz sampling frequency by using DigiData 1440 A.
Data of whole-cell voltage clamp experiments were fitted using doseResp function. The half inhibition concentrations were derived from fits of the dose–response curves to the function:1 I/I0=A1+A2-A1/1+10^logx0-xP, where I 0 and I are current amplitudes before and after application of inhibitors; A 1 and A 2 are constants between 0 and 1; x is the concentration of inhibitor; x o is the concentration when 50% inhibition was reached (IC50), P is the Hill constant.

In data set [3] the test system is mice. Kind of data set: Tail suspension test. The format is in vivo, Male C57BL/6 mice. The note with it: chronic i.p. administration 10 days; 0.5, 1, 5 mg kg-1. The protocol: Male C57BL/6 mice, aged 8 weeks (weighing 18–20 g) were used for acute and chronic drug administration and behavioral tests. The mice were housed four per cage under a 12-h light–dark cycle. Mice were raised under stable conditions with food and water ad libitum. All animal studies and experimental procedures were approved by the Animal Care Committees of the Shanghai Institute of Materia Medica, Chinese Academy of Sciences, and experiments were carried out in accordance with EU Directive 2010/63/EU on the protection of animals used for scientific purposes. […] The mice were removed to a sound-attenuating testing room 3–4 h before testing. The behavioral tests were carried out 30 min and 24 h after acute and chronic drugs administration, respectively.
Mice were secured on the shelf by using adhesive tape placed approximately 1 cm from the tip of the tail. The mice were then suspended by placing the other end of the tape on the edge of shelf at the height of 80 cm above the floor. Six-minute session was performed for each animal. A blinded experiment was conducted to record the amount of time spent immobile during the last 4 min of the testing period; the first 2 min were excluded. Because most mice are very active at the beginning of the test, and the potential effects of the treatment can be minimized during the first 2 min. […]

Data set [4] concerns TREK-1 internalization. Kind of data set: Confocal microscopic analysis of channel internalization (co-localization with Rab5a). The note with it: 10 μM, 20 min, vs DMSO control. It is filed as cell-based, CHO-K1 cells. Here is the method: In eight-well chamber (Thermo), CHO-K1 cells were co-transfected with PEGFP-N1-TREK1 and OFP-Rab5a. After 24 h, cells were treated with 10 μM TKDC for 20 min at room temperature and DMSO as control. At the end of incubation, cells were washed with PBS, fixed with 4% paraformaldehyde and washed with PBS. Images were taken at × 100 with scan zoom 1.74 using Leica SP8 and 3D reconstruction was done using Imaris software (Bitplane) and co-localization analysis was quantified using Imaris software. An automatic threshold of red and green channels was selected. The data represent images taken from 18 different areas (n = 18).

The test system of data set [5] is T2, mutant TRAAK channels.
T2 construct: expressed in transfected cells; host or cells: CHO cells, transient transfection
Description: Whole-cell voltage clamp of mutant TRAAK channels. The format is cell-based, human. The note with it: 100 μM, L39W mutant.
From the text: as §1, §2, §3
(§4) All patch-clamp recordings were conducted 36–96 h after transfection with an Axopatch-200B amplifier (Molecular Devices) at room temperature (23–25 °C). […]

Data set [6] deals with mutant TRAAK channels. Kind of data set: Whole-cell voltage clamp of mutant TRAAK channels. The format is cell-based, human. The note with it: A35Q, E38T and V42Q mutants.
From the text: as §1, §2, §3, §4

Structures are written as SMILES.

The values that follow come from article PMC5575254, “An allosteric ligand-binding site in the extracellular cap of K2P channels” (Nature Communications, 2017).

As for `CS(=O)(=O)N(CC(=O)N1CCc2ccccc2C1)c1ccc(Cl)cc1` [TKDC, N-(4-cholorphenyl)-N-(2-(3,4-dihydrosioquinolin-2(1H)-yl)-2-oxoethyl)methanesulfonamide], in data set [1], the solubility result is given as “not very soluble”. For the same compound, the IC50 in data set [2] came to 5.2 ± 1.9 µM. Also, the “immobility in the tail suspension test” value in data set [3] is on record as “dose-dependent decrease in immobility”. The “TREK-1 internalization (co-localization with Rab5a)” value in data set [4] is on record as “did not significantly increase TREK-1 internalization”. Also, in data set [5], the “inhibitory effect on L39W TRAAK mutant versus wild type” value is “weaker than the TKDC-induced”. In data set [6], the “TKDC-induced inhibition of mutant TRAAK versus WT” value was “enhanced inhibition”.
